According to patent US20150353495A1 (PORTOLA PHARMACEUTICALS, INC., priority 2010, published 2015):

What was measured:
Type in all cases: biochemical
JAK1 = molecular target: T1, JAK1 (Homo sapiens, UniProt P23458); assay: Z'-LYTE kinase assay JAK1
T1 construct: 5 μl of catalytic domain recombinant Kinase enzyme+Tyr peptide substrate (Invitrogen, CA); purchased Invitrogen
How it was run: (§1)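 In duplicate wells, each test molecule (1% final DMSO) is incubated with recombinant kinase catalytic domain, Tyr6 peptide substrate and ATP for one hour at room temperature; a site-specific protease is then added for another hour before fluorescence reading.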

JAK2 = molecular target: T2, JAK2 (Homo sapiens, UniProt O60674); assay: Z'-LYTE kinase assay JAK2
T2 construct: 5 μl of catalytic domain recombinant Kinase enzyme+Tyr peptide substrate (Invitrogen, CA); purchased Invitrogen
How it was run: as §1

TYK2 = molecular target: T3, TYK2 (Homo sapiens, UniProt P29597); assay: Z'-LYTE kinase assay TYK2
T3 construct: 5 μl of catalytic domain recombinant Kinase enzyme+Tyr peptide substrate (Invitrogen, CA); purchased Invitrogen
T3 sequence (P29597 897-1176 limits assumed): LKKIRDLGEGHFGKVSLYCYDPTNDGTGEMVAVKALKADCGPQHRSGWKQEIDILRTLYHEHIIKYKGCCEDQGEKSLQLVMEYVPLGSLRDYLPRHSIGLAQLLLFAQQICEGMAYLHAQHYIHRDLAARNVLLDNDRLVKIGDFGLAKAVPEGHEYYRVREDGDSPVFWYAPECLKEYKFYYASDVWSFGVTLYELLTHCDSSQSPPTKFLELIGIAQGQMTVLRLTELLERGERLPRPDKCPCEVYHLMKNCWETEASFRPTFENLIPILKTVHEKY
Experimental: JAK and TYK2 tyrosine phosphorylation activity is measured using the Z′-LYTE™ Technology developed by Invitrogen Corporation (Carlsbad, Calif.). For JAK1, JAK2 and JAK3 the Z′-LYTE™ Kinase Assay Kit-Tyr6 Peptide (part number PV4122) was used. For TYK2 the Z′-LYTE™ Kinase Assay Kit-Tyr6 Peptide (part number PV3192) was used. The Z′-LYTE™ biochemical assay employs a fluorescence resonance energy transfer (FRET) coupled-enzyme format and is based on the differential sensitivity of phosphorylated and non-phosphorylated peptides to proteolitic cleavage. The assay uses a synthetic peptide substrate that is labelled with a donor fluorophore (coumarin) and an acceptor fluorophore (fluorescein) that make up a FRET pair. In the primary reaction (the Kinase Reaction), the kinase transfers the γ-phosphate of ATP to a single tyrosine residue on the substrate, while the presence of a kinase inhibitor in the primary reaction suppresses phosphorylation. In the secondary reaction (the Development Reaction), a site-specific protease (the Development Reagent) is added. The development buffer quenches the Kinase Reaction, while the protease recognizes and cleaves non-phosphorylated Z′-LYTE™ peptide substrate. Cleavage disrupts FRET between the donor and acceptor fluorophores on the non-phosphoryleted substrate, while uncleaved, phosphorylated substrate maintains FRET.
To test the ability of candidate molecules to inhibit JAK tyrosine phosphorylation activity, molecules are reconstituted in 100% DMSO and serially diluted 1:10 in polypropylene v-bottom microtiter plates. The candidate molecules are then diluted 1:25 into kinase buffer and 2.5 μl transferred into duplicate wells of a 384 well low volume black microtiter assay plate (Corning, USA). The final DMSO concentration in the assay is 1%. The kinase reaction contains 2.5 μl of a candidate molecule, 5 μl of catalytic domain recombinant Kinase enzyme+Tyr peptide substrate (Invitrogen, CA) and 2.5 μl ATP (Invitrogen, CA). The kinase reaction is allowed to procede for 1 hour at room temperature. The protease reaction is initiated by the addition of 5 μl Development Reagent (Invitrogen, CA). After 1 hour incubation at room temperature the fluorescence is measured using a FlexStation plate reader (Molecular Devices, Sunnyvale, Calif.). The reader settings used are as follows: Fluorescence mode, endpoint, top read, excitation 400 nm, emission 445 nm and 520 nm, Auto Cutoff 435 nm and 515 nm, PMT sensitivity high, 6 reads per well Inhibition of JAK kinase activity is calculated as the percent phosphorylation of substrate in the presence of inhibitor compared to the percent phosphorylation of substrate in the absence of inhibitor. IC50's were derived using Xlfit 4.3 (IDBS, UK), 4 parameter logistic model 205: Y=(A+4B-A)/(1+((C/x)AD)))).

JAK3 = molecular target: T4, JAK3 (Homo sapiens, UniProt P52333); assay: Z'-LYTE kinase assay JAK3
T4 construct: 5 μl of catalytic domain recombinant Kinase enzyme+Tyr peptide substrate (Invitrogen, CA); purchased Invitrogen
How it was run: as §1

T4 sequence (P52333 822-1111 limits assumed): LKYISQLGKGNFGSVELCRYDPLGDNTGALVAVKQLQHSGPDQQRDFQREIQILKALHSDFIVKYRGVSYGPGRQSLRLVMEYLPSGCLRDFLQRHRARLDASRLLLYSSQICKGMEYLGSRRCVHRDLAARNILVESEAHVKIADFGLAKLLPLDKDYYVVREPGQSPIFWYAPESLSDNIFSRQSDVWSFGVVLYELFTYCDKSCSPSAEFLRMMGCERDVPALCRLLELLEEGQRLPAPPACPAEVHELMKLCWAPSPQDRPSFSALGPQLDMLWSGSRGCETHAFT
T2 sequence (O60674 849-1124 limits assumed): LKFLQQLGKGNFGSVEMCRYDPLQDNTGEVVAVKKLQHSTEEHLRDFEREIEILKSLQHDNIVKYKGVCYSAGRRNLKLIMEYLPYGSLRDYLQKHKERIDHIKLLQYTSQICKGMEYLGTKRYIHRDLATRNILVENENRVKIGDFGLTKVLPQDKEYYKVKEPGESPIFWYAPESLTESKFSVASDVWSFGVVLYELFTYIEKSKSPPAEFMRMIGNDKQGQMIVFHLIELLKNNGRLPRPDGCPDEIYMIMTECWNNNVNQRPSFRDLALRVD
T1 sequence (P23458 875-1153 limits assumed): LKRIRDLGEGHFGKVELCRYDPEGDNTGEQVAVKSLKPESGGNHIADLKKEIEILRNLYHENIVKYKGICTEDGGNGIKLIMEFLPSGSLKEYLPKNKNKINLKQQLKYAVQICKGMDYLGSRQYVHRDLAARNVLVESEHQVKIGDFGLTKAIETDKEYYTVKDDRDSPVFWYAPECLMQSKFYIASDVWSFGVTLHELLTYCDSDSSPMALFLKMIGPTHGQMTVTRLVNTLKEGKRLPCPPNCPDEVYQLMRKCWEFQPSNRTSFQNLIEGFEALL

Row | SMILES | IC50 (JAK1) | IC50 (JAK2) | IC50 (TYK2) | IC50 (JAK3)
1 | Cc1cccc(Nc2cc(Nc3ccc(OCCN4CCCC4)cc3)ncc2C(N)=O)c1 [Example 14, 4-(3-toluidino)-6-(4-(2-(pyrrolidin-1-yl)ethoxy)phenylamino)nicotinamide] | > 1000 nM | 100 to 1000 nM | 100 to 1000 nM | 100 to 1000 nM
2 | COc1ccc(Nc2cc(Nc3ccc(N4CCOCC4)cc3)c(C(N)=O)cn2)cc1 [Example 17, 6-(4-methoxyphenylamino)-4-(4-morpholinophenylamino)nicotinamide] | > 1000 nM | > 1000 nM | > 1000 nM | 100 to 1000 nM
3 | CC(=O)Nc1cccc(Nc2nc(NC3CCCC3)c(C(N)=O)cc2F)c1 [Example 18, 6-(3-acetamidophenylamino)-2-(cyclopentylamino)-5-fluoronicotinamide] | > 1000 nM | > 1000 nM | 100 to 1000 nM | > 1000 nM
4 | CC(=O)Nc1cccc(Nc2nc(NCc3ccccc3)c(C(N)=O)cc2F)c1 [Example 19, 6-(3-acetamidophenylamino)-2-(benzylamino)-5-fluoronicotinamide] | > 1000 nM | > 1000 nM | > 1000 nM | > 1000 nM
5 | CC(=O)Nc1cccc(Nc2nc(N)c(C(N)=O)cc2F)c1 [Example 21, 6-(3-acetamidophenylamino)-2-amino-5-fluoronicotinamide] | > 1000 nM | > 1000 nM | > 1000 nM | > 1000 nM
6 | NC(=O)c1cc(F)c(Nc2cccc(-n3nccn3)c2)nc1NC1CCCC1 [Example 22, 6-(3-(2H-1,2,3-triazol-2-yl)phenylamino)-2-(cyclopentylamino)-5-fluoronicotinamide] | > 1000 nM | > 1000 nM | > 1000 nM | 100 to 1000 nM
7 | C[C@@H](Nc1nc(Nc2ccc(OCCN3CCCC3)cc2)c(F)cc1C(N)=O)c1ccccc1 [Example 27, (R)-5-fluoro-2-(1-phenylethylamino)-6-(4-(2-(pyrrolidin-1-yl)ethoxy)phenylamino)nicotinamide] | > 1000 nM | > 1000 nM | > 1000 nM | > 1000 nM
8 | CC(=O)N1CCN(c2ccc(Nc3cc(NCCc4ccccc4)c(C(N)=O)cn3)cc2)CC1 [Example 29] | > 1000 nM | 100 to 1000 nM | 100 to 1000 nM | 10 to 100 nM
9 | CN(C)C(=O)c1ccc(Nc2cc(NCc3c(F)cccc3F)c(C(N)=O)cn2)cc1 [Example 102, 4-(2,6-difluorobenzylamino)-6-(4-(dimethylcarbamoyl)phenylamino)nicotinamide] | 100 to 1000 nM | 10 to 100 nM | 10 to 100 nM | 1 to 10 nM
10 | CC(=O)N1CCN(c2ccc(Nc3cc(NC4(c5ccccc5)CC4)c(C(N)=O)cn3)cc2)CC1 [Example 126, 6-(4-(4-acetylpiperazin-1-yl)phenylamino)-4-(1-phenylcyclopropylamino)nicotinamide] | > 1000 nM | 100 to 1000 nM | > 1000 nM | 1 to 10 nM
11 | NC(=O)c1cnc(Nc2ccc(C3CCOCC3)cc2)cc1NCc1cccc(F)c1 [Example 143, 4-(3-fluorobenzylamino)-6-(4-(tetrahydro-2H-pyran-4-yl)phenylamino)nicotinamide] | > 1000 nM | > 1000 nM | > 1000 nM | 10 to 100 nM
12 | CCC(=O)N1CCC(c2ccc(Nc3cc(NCc4cc(F)ccc4F)c(C(N)=O)cn3)cc2)CC1 [Example 149, 4-(2,5-difluorobenzylamino)-6-(4-(1-propionylpiperidin-4-yl)phenylamino)nicotinamide] | 100 to 1000 nM | 10 to 100 nM | 100 to 1000 nM | 1 to 10 nM
13 | CCC(=O)N1CCC(c2ccc(Nc3cc(NCc4cccnc4)c(C(N)=O)cn3)cc2)CC1 [Example 187, 6-(4-(1-propionylpiperidin-4-yl)phenylamino)-4-(pyridin-3-ylmethylamino)nicotinamide] | 100 to 1000 nM | 100 to 1000 nM | 100 to 1000 nM | 10 to 100 nM
14 | CCC(=O)N1CCC(c2ccc(Nc3cc(NCc4cncc(F)c4)c(C(N)=O)cn3)cc2)CC1 [Example 188, 4-((5-fluoropyridin-3-yl)methylamino)-6-(4-(1-propionylpiperidin-4-yl)phenylamino)nicotinamide] | 100 to 1000 nM | 10 to 100 nM | 100 to 1000 nM | 1 to 10 nM
15 | CCC(=O)N1CCC(c2ccc(Nc3cc(NCC4(O)CCCC4)c(C(N)=O)cn3)cc2)CC1 [Example 193, 4-((1-hydroxycyclopentyl)methylamino)-6-(4-(1-propionylpiperidin-4-yl)phenylamino)nicotinamide] | > 1000 nM | 100 to 1000 nM | 100 to 1000 nM | 10 to 100 nM

More lines, now with the values ahead:

Row | IC50 (JAK1) | IC50 (JAK2) | IC50 (TYK2) | IC50 (JAK3) | SMILES
16 | > 1000 nM | > 1000 nM | > 1000 nM |  | NC(=O)c1cnc(Nc2ccccc2)cc1NCc1ccccc1 [Example 9, 4-(benzylamino)-6-(phenylamino)nicotinamide]
17 | > 1000 nM | > 1000 nM | > 1000 nM | 100 to 1000 nM | NC(=O)c1cnc(Nc2ccc(Cl)cc2)cc1NCc1ccccc1 [Example 13, 4-(benzylamino)-6-(4-chlorophenylamino)nicotinamide]
18 | > 1000 nM | > 1000 nM | > 1000 nM | > 1000 nM | CC(=O)Nc1cccc(Nc2nc(N[C@H](C)c3ccccc3)c(C(N)=O)cc2F)c1 [Example 20, (R)-6-(3-acetamidophenylamino)-5-fluoro-2-(1-phenylethylamino)nicotinamide]
19 | > 1000 nM | > 1000 nM | > 1000 nM | > 1000 nM | NC(=O)c1cc(F)c(Nc2cccc(-n3nccn3)c2)nc1NCc1ccccc1 [Example 23, 6-(3-(2H-1,2,3-triazol-2-yl)phenylamino)-2-(benzylamino)-5-fluoronicotinamide]
20 | > 1000 nM | > 1000 nM | > 1000 nM | > 1000 nM | NC(=O)c1cc(F)c(Nc2cccc(-n3nccn3)c2)nc1N [Example 24, 6-(3-(2H-1,2,3-triazol-2-yl)phenylamino)-2-amino-5-fluoronicotinamide]
21 | > 1000 nM | > 1000 nM | > 1000 nM | > 1000 nM | NC(=O)c1cc(F)c(Nc2ccc(OCCN3CCCC3)cc2)nc1NC1CCCC1 [Example 25, 2-(cyclopentylamino)-5-fluoro-6-(4-(2-(pyrrolidin-1-yl)ethoxy)phenylamino)nicotinamide]
22 | > 1000 nM | > 1000 nM | > 1000 nM | > 1000 nM | NC(=O)c1cc(F)c(Nc2ccc(OCCN3CCCC3)cc2)nc1NCc1ccccc1 [Example 26, 2-(benzylamino)-5-fluoro-6-(4-(2-(pyrrolidin-1-yl)ethoxy)phenylamino)nicotinamide]
23 | > 1000 nM | > 1000 nM | > 1000 nM | 100 to 1000 nM | CC(C)(C)OC(=O)N1CCC(c2ccc(Nc3cc(NCc4cccc(F)c4)c(C(N)=O)cn3)cc2)CC1 [Example 77, tert-butyl 4-(4-(5-carbamoyl-4-(3-fluorobenzylamino)pyridin-2-ylamino)phenyl)piperidine-1-carboxylate]
24 | 100 to 1000 nM | 10 to 100 nM | 100 to 1000 nM | 1 to 10 nM | CC(=O)N1CCN(c2ccc(Nc3cc(NC4(c5ccccc5F)CC4)c(C(N)=O)cn3)cc2)CC1 [Example 130, 6-(4-(4-acetylpiperazin-1-yl)phenylamino)-4-(1-(2-fluorophenyl)cyclopropylamino)nicotinamide]
